Values quoted from earlier work, collected in patent publication US20140371717A1, “DRUG DELIVERY MEDICAL DEVICE” (Micell Technologies, Inc., priority 2011, published 2014).

Columns and labels:
FKBP12 = FKBP12 (Homo sapiens, UniProt P62942)
[1] = value in μM

Chain of FKBP12 (P62942 whole entry, species assumed): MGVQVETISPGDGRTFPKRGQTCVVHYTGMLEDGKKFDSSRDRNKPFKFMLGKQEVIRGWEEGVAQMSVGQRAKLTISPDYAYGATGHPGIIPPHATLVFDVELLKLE

Compound	FKBP12 binding (FKBP12) [nM]	FKBP12 binding (nM) (FKBP12)	Antiproliferative potency (nM) [1]
CO[C@H]1C[C@@H]2CC[C@@H](C)[C@@](O)(O2)C(=O)C(=O)N2CCCC[C@H]2C(=O)O[C@H]([C@H](C)C[C@@H]2CC[C@@H](OCCO)[C@H](OC)C2)CC(=O)[C@H](C)/C=C(\C)[C@@H](O)[C@@H](OC)C(=O)[C@H](C)C[C@H](C)/C=C/C=C/C=C/1C [Everolimus, 40-O-(2-Hydroxyethyl)rapamycin]	1.8 to 2.6	–	–
CC[C@@H]1/C=C(\C)C[C@H](C)C[C@H](OC)[C@H]2O[C@@](O)(C(=O)C(=O)N3CCCC[C@H]3C(=O)O[C@H](/C(C)=C/[C@@H]3CC[C@H](Cl)[C@H](OC)C3)[C@H](C)[C@@H](O)CC1=O)[C@H](C)C[C@@H]2OC [Pimecrolimus]	–	about 1.2 nM	about 1 μM
C=CC[C@@H]1/C=C(\C)C[C@H](C)C[C@H](OC)[C@H]2O[C@@](O)(C(=O)C(=O)N3CCCC[C@H]3C(=O)O[C@H](/C(C)=C/[C@@H]3CC[C@@H](O)[C@H](OC)C3)[C@H](C)[C@@H](O)CC1=O)[C@H](C)C[C@@H]2OC [Tacrolimus]	0.2 to 0.4	–	–
CO[C@H]1C[C@@H]2CC[C@@H](C)[C@@](O)(O2)C(=O)C(=O)N2CCCC[C@H]2C(=O)O[C@H]([C@H](C)C[C@@H]2CC[C@@H](OC(=O)C(C)(CO)CO)[C@H](OC)C2)CC(=O)[C@H](C)/C=C(\C)[C@@H](O)[C@@H](OC)C(=O)[C@H](C)C[C@H](C)/C=C/C=C/C=C/1C [Temsirolimus, 42-[3-hydroxy-2-(hydroxymethyl)-2-methylpropanoate]rapamycin]	–	about the same as Sirolimus	–
CO[C@H]1C[C@@H]2CC[C@@H](C)[C@@](O)(O2)C(=O)C(=O)N2CCCC[C@H]2C(=O)O[C@H]([C@H](C)C[C@@H]2CC[C@H](n3cnnn3)[C@H](OC)C2)CC(=O)[C@H](C)/C=C(\C)[C@@H](O)[C@@H](OC)C(=O)[C@H](C)C[C@H](C)/C=C/C=C/C=C/1C [Zotarolimus]	2.0 to 3.2	–	–
